# Measurements published in patent US20260070945A1, “MACROCYCLIC IMMUNOMODULATORS” (Bristol-Myers Squibb Company, priority 2022, published 2026).
# *1 amine or outer side, *2 acyl side, *3 side chain or, on linkers, in order; H or OH if unused. Where a SMILES comes first, the peptide text is derived from it. Bridges are numbered along the chain shown (N, C = ends). [ ]: non-standard residue; d: D form. The star is where a group is joined. ξ: configuration not given here. X13 = O=C([C@H](Cc1ccc(-c2cc(F)cc(F)c2)cc1)N[*:1])[*:2]; Phe(3-CF3) = N[C@@H](Cc1cccc(C(F)(F)F)c1)C(=O)O; Phe(4-CF3) = N[C@@H](Cc1ccc(C(F)(F)F)cc1)C(=O)O; Phe(4-COOH) = N[C@@H](Cc1ccc(C(=O)O)cc1)C(=O)O; Phe(4-CH2NH2) = NCc1ccc(C[C@H](N)C(=O)O)cc1; Bip = N[C@@H](Cc1ccc(-c2ccccc2)cc1)C(=O)O; NH(CH2)14COOH = O=C(O)CCCCCCCCCCCCCCN*; Phe(3-Me) = Cc1cccc(C[C@H](N)C(=O)O)c1; NH(CH2)8CO = O=C(CCCCCCCCN[*:1])[*:2]; Val(3-OH) = CC(C)(O)[C@H](N)C(=O)O; Cha = N[C@@H](CC1CCCCC1)C(=O)O; Cit = NC(=O)NCCC[C@H](N)C(=O)O; Thr(3ξ) = CC(O)[C@H](N)C(=O)O; Carboxymethyl = O=C(O)C*; NMeA = CN[C@@H](C)C(=O)O; Orn = NCCC[C@H](N)C(=O)O; Aun = NCCCCCCCCCCC(=O)O; Dab = NCC[C@H](N)C(=O)O; AEEA = NCCOCCOCC(=O)O; Sar = CNCC(=O)O
# Target: T1, PD-1/PD-L1 interaction (PE-labeled human PD-L1-Ig binding to Jurkat cell line over-expressing human PD-1) (Homo sapiens, UniProt Q15116)
# T1 construct: expressed in transfected cells; host or cells: Jurkat
# T1 sequence (Q15116 25-288): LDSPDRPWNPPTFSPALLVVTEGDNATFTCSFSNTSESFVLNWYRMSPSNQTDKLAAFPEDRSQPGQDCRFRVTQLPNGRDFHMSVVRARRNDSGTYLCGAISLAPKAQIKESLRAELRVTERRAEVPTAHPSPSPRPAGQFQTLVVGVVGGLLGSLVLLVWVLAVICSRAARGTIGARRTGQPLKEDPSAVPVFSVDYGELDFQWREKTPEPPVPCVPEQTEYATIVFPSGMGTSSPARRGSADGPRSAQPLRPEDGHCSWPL
# Assay: Jurkat-PD-1 Cell Binding High-Content Screening Assay (CBA)
# Settings: Jurkat-hPD-1 cells, PE-labeled PD-L1-Ig 20 nM final; read-out: Jurkat HPD1 PDL1 IC50
# In short: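 Compound is added first to the PD-1-expressing Jurkat cells and held 2 h at 37 °C in serum-containing DMEM. The fluorescent PD-L1 fusion follows at 20 nM final for 1 h. Fixed, Hoechst-stained cells are then imaged for bound label.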
row,IC50 [nM],SMILES
1,34.6,Cc1cccc(C[C@@H]2NC(=O)[C@H](CC(=O)O)NC(=O)[C@H](Cc3ccc(C(=O)O)cc3)NC(=O)[C@H](Cc3ccc(OCC(=O)O)cc3)NC(=O)CSC[C@@H](C(=O)NCCOCCOCC(=O)NCCCCCCCCCCC(=O)O)NC(=O)[C@H](CCC(=O)O)NC(=O)[C@H](C(C)C)NC(=O)[C@H](CC3CCCCC3)NC(=O)[C@H](CCN)NC(=O)[C@@H](CC(C)C)NC(=O)[C@H](C)N(C)C(=O)[C@H](C(C)C)NC(=O)[C@H](Cc3ccc(-c4ccccc4)cc3)NC(=O)[C@H](CC(C)C)NC2=O)c1 [Example 2296] ({CH2CO}-Y(Carboxymethyl)[Phe(4-COOH)]D[Phe(3-Me)]L[Bip]V[NMeA][dL][Dab][Cha]VEC[AEEA][Aun]-OH; thioether N-14)
2,137,CC(C)C[C@H]1NC(=O)[C@H](C)N(C)C(=O)[C@H](Cc2ccc(OCC(=O)O)cc2)NC(=O)[C@H](Cc2ccc(-c3ccccc3)cc2)NC(=O)[C@H](Cc2ccc(OCC(=O)O)cc2)NC(=O)[C@H](Cc2c[nH]c3ccccc23)NC(=O)[C@H](CC(=O)O)NC(=O)[C@H](Cc2ccc(OCC(=O)O)cc2)NC(=O)[C@H]([C@@H](C)O)NC(=O)CSC[C@@H](C(=O)N[C@@H](CCN)C(=O)NCCOCCOCC(=O)NCCCCCCCCCCC(=O)O)NC(=O)[C@H](CCC(=O)O)NC(=O)[C@H](C(C)C)NC(=O)[C@H](CC2CCCCC2)NC(=O)[C@H](CC(N)=O)NC1=O [Example 1386] ({CH2CO}-TY(Carboxymethyl)DWY(Carboxymethyl)[Bip]Y(Carboxymethyl)[NMeA][dL]N[Cha]VEC[Dab][AEEA][Aun]-OH; thioether N-14)
3,29.6,Cc1cccc(C[C@@H]2NC(=O)[C@H](CC(=O)O)NC(=O)[C@H](Cc3ccc(OCC(=O)O)cc3)NC(=O)[C@H](CCCNC(=N)N)NC(=O)CSC[C@@H](C(=O)N[C@H](CCC(=O)O)C(=O)NCCCCCCCCCCC(=O)O)NC(=O)[C@H](C(C)O)NC(=O)[C@H](C(C)C)NC(=O)[C@H](CC3CCCCC3)NC(=O)[C@H](CCN)NC(=O)[C@@H](CC(C)C)NC(=O)[C@H](C)N(C)C(=O)[C@H](CCCNC(N)=O)NC(=O)[C@H](Cc3ccc(-c4ccccc4)cc3)NC(=O)[C@H](C(C)C)NC2=O)c1 (stereo partly drawn) [Example 2392] ({CH2CO}-RY(Carboxymethyl)D[Phe(3-Me)]V[Bip][Cit][NMeA][dL][Dab][Cha]V[Thr(3ξ)]C[dE][Aun]-OH; thioether N-14)
4,239,CC(C)C[C@@H]1NC(=O)[C@H](Cc2c[nH]c3ccccc23)NC(=O)[C@H](CC(=O)O)NC(=O)[C@H](Cc2ccc(OCC(=O)O)cc2)NC(=O)[C@H](Cc2ccc(OCC(=O)O)cc2)NC(=O)CSC[C@@H](C(=O)NCCOCCOCC(=O)NCCCCCCCCCCC(=O)O)NC(=O)[C@H](CO)NC(=O)[C@H](C(C)(C)O)NC(=O)[C@H](CC2CCCCC2)NC(=O)[C@H](CC(N)=O)NC(=O)[C@@H](CC(C)C)NC(=O)[C@H](C)N(C)C(=O)[C@H](C(C)C)NC(=O)[C@H](Cc2ccc(-c3ccccc3)cc2)NC1=O [Example 2446] ({CH2CO}-Y(Carboxymethyl)Y(Carboxymethyl)DWL[Bip]V[NMeA][dL]N[Cha][Val(3-OH)]SC[AEEA][Aun]-OH; thioether N-14)
5,31.6,Cc1cccc(C[C@@H]2NC(=O)[C@H](CC(=O)O)NC(=O)[C@H](Cc3ccc(OCC(=O)O)cc3)NC(=O)[C@H]([C@@H](C)O)NC(=O)CSC[C@@H](C(=O)N[C@@H](CCN)C(=O)NCCCCCCCCCCC(=O)O)NC(=O)[C@H]([C@@H](C)O)NC(=O)[C@H](C(C)C)NC(=O)[C@H](CC3CCCCC3)NC(=O)[C@H](CCN)NC(=O)[C@@H](CC(C)C)NC(=O)[C@H](C)N(C)C(=O)[C@H](Cc3ccc(OCC(=O)O)cc3)NC(=O)[C@H](Cc3ccc(-c4cc(F)cc(F)c4)cc3)NC(=O)[C@H](Cc3ccc(C(=O)O)cc3)NC2=O)c1 [Example 1234] ({CH2CO}-TY(Carboxymethyl)D[Phe(3-Me)][Phe(4-COOH)][X13]Y(Carboxymethyl)[NMeA][dL][Dab][Cha]VTC[Dab][Aun]-OH; thioether N-14)
6,85.5,CC(=O)NCCCC[C@@H]1NC(=O)[C@H](C(C)C)NC(=O)[C@H](CC2CCCCC2)NC(=O)[C@H](CCN)NC(=O)[C@@H](CC(C)C)NC(=O)[C@H](C)N(C)C(=O)[C@H](Cc2ccc(O)cc2)NC(=O)[C@H](Cc2ccc(-c3ccccc3)cc2)NC(=O)[C@H](C(C)C)NC(=O)[C@H](Cc2cccc(C)c2)NC(=O)[C@H](CC(=O)O)NC(=O)[C@H](Cc2ccc(OCC(=O)O)cc2)NC(=O)[C@H](C(C)O)NC(=O)CSC[C@@H](C(=O)N(C)CC(=O)NCCCCCCCCCCC(=O)O)NC1=O (stereo partly drawn) [Example 2274] ({CH2CO}-[Thr(3ξ)]Y(Carboxymethyl)D[Phe(3-Me)]V[Bip]Y[NMeA][dL][Dab][Cha]VK(Ac)C[Sar][Aun]-OH; thioether N-14)
7,13.9,Cc1cccc(C[C@@H]2NC(=O)[C@H](CC(=O)O)NC(=O)[C@H](Cc3ccc(C(=O)O)cc3)NC(=O)[C@H](Cc3ccc(OCC(=O)O)cc3)NC(=O)CSC[C@@H](C(=O)NCCCCCCCCCCC(=O)O)NC(=O)[C@H](CCCNC(N)=O)NC(=O)[C@H](C(C)C)NC(=O)[C@H](CC3CCCCC3)NC(=O)[C@H](CCN)NC(=O)[C@@H](CC(C)C)NC(=O)[C@H](C)N(C)C(=O)[C@H](C(C)C)NC(=O)[C@H](Cc3ccc(-c4ccccc4)cc3)NC(=O)[C@H](C(C)C)NC2=O)c1 [Example 2216] ({CH2CO}-Y(Carboxymethyl)[Phe(4-COOH)]D[Phe(3-Me)]V[Bip]V[NMeA][dL][Dab][Cha]V[Cit]C[Aun]-OH; thioether N-14)

# Same assay, conditions: PE-labeled PD-L1-Ig 20 nM final, Jurkat-hPD-1 cells; read-out: Jurkat HPD1 PDL1 IC50
row,IC50 [nM],SMILES
1,383,CC(C)C[C@H]1NC(=O)[C@H](C)N(C)C(=O)[C@H](Cc2ccc(C(=O)O)cc2)NC(=O)[C@H](Cc2ccc(-c3ccccc3)cc2)NC(=O)[C@H](Cc2ccc(C(=O)O)cc2)NC(=O)[C@H](Cc2cccc(C(F)(F)F)c2)NC(=O)[C@H](CC(=O)O)NC(=O)[C@H](Cc2ccc(C(=O)O)cc2)NC(=O)[C@H](C(C)O)NC(=O)CSC[C@@H](C(=O)N[C@@H](CCN)C(=O)NCCOCCOCC(=O)NCCOCCOCC(=O)NCCCCCCCCCCCCCCC(=O)O)NC(=O)[C@H](CCC(=O)O)NC(=O)[C@H](C(C)C)NC(=O)[C@H](CC2CCCCC2)NC(=O)[C@H](CCN)NC1=O (stereo partly drawn) [Example 2613] ({CH2CO}-[Thr(3ξ)][Phe(4-COOH)]D[Phe(3-CF3)][Phe(4-COOH)][Bip][Phe(4-COOH)][NMeA][dL][Dab][Cha]VEC[Dab][AEEA][AEEA]-{NH(CH2)14COOH}; thioether N-14)
2,0.7,Cc1cccc(C[C@@H]2NC(=O)[C@H](CC(=O)O)NC(=O)[C@H](Cc3ccc(C(=O)O)cc3)NC(=O)[C@H](C(C)O)NC(=O)CSC[C@@H](C(=O)N[C@@H](CCN)C(=O)NCCOCCOCC(=O)NCCCCCCCCCCC(=O)O)NC(=O)[C@H](CC(=O)O)NC(=O)[C@H](C(C)C)NC(=O)[C@H](CC3CCCCC3)NC(=O)[C@H](CCN)NC(=O)[C@@H](CC(C)C)NC(=O)[C@H](C)N(C)C(=O)[C@H](Cc3ccc(C(=O)O)cc3)NC(=O)[C@H](Cc3ccc(-c4ccccc4)cc3)NC(=O)[C@H](Cc3ccc(C(=O)O)cc3)NC2=O)c1 (stereo partly drawn) [Example 2557] ({CH2CO}-[Thr(3ξ)][Phe(4-COOH)]D[Phe(3-Me)][Phe(4-COOH)][Bip][Phe(4-COOH)][NMeA][dL][Dab][Cha]VDC[Dab][AEEA][Aun]-OH; thioether N-14)
3,30.1,Cc1cccc(C[C@@H]2NC(=O)[C@H](CC(=O)O)NC(=O)[C@H](Cc3ccc(CN)cc3)NC(=O)[C@H]([C@@H](C)O)NC(=O)CSC[C@@H](C(=O)N[C@@H](CCN)C(=O)NCCCCCCCCC(=O)NCCCCCCCCCCC(=O)O)NC(=O)[C@H](CCCN)NC(=O)[C@H](C(C)C)NC(=O)[C@H](CC3CCCCC3)NC(=O)[C@H](CCN)NC(=O)[C@@H](CC(C)C)NC(=O)[C@H](C)N(C)C(=O)[C@H](Cc3ccc(CN)cc3)NC(=O)[C@H](Cc3ccc(-c4ccccc4)cc3)NC(=O)[C@H](Cc3ccc(CN)cc3)NC2=O)c1 [Example 2671] ({CH2CO}-T[Phe(4-CH2NH2)]D[Phe(3-Me)][Phe(4-CH2NH2)][Bip][Phe(4-CH2NH2)][NMeA][dL][Dab][Cha]V[Orn]C[Dab][NH(CH2)8CO][Aun]-OH; thioether N-14)
4,11.4,CC(=O)NCCCC[C@@H]1NC(=O)[C@H](C(C)(C)O)NC(=O)[C@H](CC2CCCCC2)NC(=O)[C@H](CCN)NC(=O)[C@@H](CC(C)C)NC(=O)[C@H](C)N(C)C(=O)[C@H](Cc2ccc(C(=O)O)cc2)NC(=O)[C@H](Cc2ccc(-c3ccccc3)cc2)NC(=O)[C@H](Cc2ccc(C(=O)O)cc2)NC(=O)[C@H](Cc2cccc(C)c2)NC(=O)[C@H](CC(=O)O)NC(=O)[C@H](Cc2ccc(OCC(=O)O)cc2)NC(=O)[C@H](C(C)O)NC(=O)CSC[C@@H](C(=O)N[C@@H](CCN)C(=O)NCCOCCOCC(=O)N[C@@H](CCC(=O)NCCCCCCCCCCCCC(=O)O)C(=O)O)NC1=O (mixture of isomers) [Example 2659]
5,2.7,CC(=O)NCCCC[C@@H]1NC(=O)[C@H](C(C)(C)O)NC(=O)[C@H](CC2CCCCC2)NC(=O)[C@H](CCN)NC(=O)[C@@H](CC(C)C)NC(=O)[C@H](C)N(C)C(=O)[C@H](CCC(N)=O)NC(=O)[C@H](Cc2ccc(-c3ccccc3)cc2)NC(=O)[C@H](Cc2ccc(C(=O)O)cc2)NC(=O)[C@H](Cc2cccc(C)c2)NC(=O)[C@H](CC(=O)O)NC(=O)[C@H](Cc2ccc(OCC(=O)O)cc2)NC(=O)[C@H](Cc2ccc(C(F)(F)F)cc2)NC(=O)CSC[C@@H](C(=O)N[C@@H](CCN)C(=O)NCCOCCOCC(=O)NCCCCCCCCCCC(=O)O)NC1=O [Example 2596] ({CH2CO}-[Phe(4-CF3)]Y(Carboxymethyl)D[Phe(3-Me)][Phe(4-COOH)][Bip]Q[NMeA][dL][Dab][Cha][Val(3-OH)]K(Ac)C[Dab][AEEA][Aun]-OH; thioether N-14)
